Experimental data reported in patent US12653191B2, “Active compound combinations” (Bayer Aktiengesellschaft, priority 2020, dated 2026).

Legend:
Alternaria alternate = assay: in vitro-Test with fungal microorganisms, Method A (tables A1-A12); format: cell-based, Alternaria alternata; settings: Alternaria, applied alone, read-out: Efficacy %
Summary of the method: (§1)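 Broth microdilution-type growth test in potato dextrose medium with spores or mycelium of the fungus, compound pre-dried from methanol/emulsifier. Efficacy from 620 nm extinction after 3-5 days at 20° C, scaled 0% (untreated growth) to 100% (no growth).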

Alternaria alternata = assay: in vitro-Test with fungal microorganisms, Method B (tables A13-A22); format: cell-based; settings: Alternaria alternata, single compound, read-out: Efficacy
Summary of the method: (§2)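 Cpd in MeOH + alkylaryl-polyglycol-ether, solvent evaporated; liquid medium + fungal spores/mycelium added; OD600 read; 3–7 d, 20° C., 85% RH; growth inhibition by photometry, % efficacy vs untreated ctrl.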

Botrytis cinerea [1] = assay: in vitro-Test with fungal microorganisms, Method A (tables B1-B14); format: cell-based; settings: Botrytis cinerea, alone, read-out: Efficacy %
Summary of the method: as §1

Botrytis cinerea [2] = assay: in vitro-Test with fungal microorganisms, Method B (tables B15-B18); format: cell-based; settings: Botrytis cinerea, alone, 1 ppm; read-out: Efficacy %
Summary of the method: as §2

Cercospora beticola [3] = assay: in vitro-Test with fungal microorganisms, Method A (tables C1-C10); format: cell-based; settings: Cercospora beticola, read-out: Efficacy %
Summary of the method: as §1

Cercospora beticola [4] = assay: in vitro-Test with fungal microorganisms, Method B (tables C11-C20); format: cell-based; settings: Cercospora beticola, read-out: Efficacy %
Summary of the method: as §2

[5] = test system: Colletotrichum lindemuthianum; assay: in vitro-Test with fungal microorganisms, Method A (tables D1-D8); format: cell-based; settings: Colletotrichum lindemuthianum, mixing partner alone, read-out: Efficacy %
Summary of the method: as §1

Cordana musae [6] = assay: in vitro-Test with fungal microorganisms, Method A (tables E1-E8); format: cell-based; settings: Neocordana musae, single substance, read-out: Efficacy %
Summary of the method: as §1

Cordana musae [7] = assay: in vitro-Test with fungal microorganisms, Method B (tables E9-E16); format: cell-based
Summary of the method: as §2

Diaporthe citri = assay: in vitro-Test with fungal microorganisms, Method A (tables F1-F11); format: cell-based; settings: Diaporthe citri, applied alone, 0.04 ppm; read-out: Efficacy
Summary of the method: as §1

Fusarium culmorum = assay: in vitro-Test with fungal microorganisms, Method B (tables G5-G15); format: cell-based; settings: Fusarium culmorum, 0.04 ppm, alone; read-out: Efficacy
Summary of the method: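 Efficacy scale: 0% means growth equal to the untreated control, 100% means none detected. Compounds are dried from methanol with emulsifier before adding inoculated growth medium; incubation at 20° C., 85% relative humidity for 3 to 7 days precedes photometric inhibition readout.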

Parastagonospora nodorum [8] = assay: in vitro-Test with fungal microorganisms, Method A (tables H1-H4); format: cell-based
Procedure: Example: In Vitro-Test with Fungal Microorganisms
Wells of 96-well microtiter plates are filled with 10 μl of a preparation of test compound or compound combination in methanol+emulsifier alkylaryl-polyglycol-ether. Thereafter, the solvent is evaporated in a hood. At the next step, 100 μl of liquid potato dextrose medium is given into each well, that has been amended with an appropriate concentration of spores or mycelium suspension of the test fungus.
With the aid of a photometer, the extinction in all wells is measured at the wavelength of 620 nm.
The microtiter plates are incubated at 20° C. and 85% relative humidity. The inhibition of growth is determined again photometrically 3-5 days after the application. Efficacy is calculated in relation to the untreated control, 0% efficacy means fungal growth as high as in untreated control while 100% efficacy means no fungal growth is measured.
The data in tables A1 to A12, B1 to B14, C1 to C10, D1 to D8, E1 to E8, F1 to F11, G1 to G4, H1 to H4 and I1 to I5 were collected according to Method A. The data in tables A13 to A22, B15 to B18, C11 to C20, E9 to E16, F12 to F15, G5 to G15, H5 to H8, I6 to I11 and J1 to J11 were collected according to Method B.

Parastagonospora nodorum [9] = assay: in vitro-Test with fungal microorganisms, Method B (tables H5-H8); format: cell-based; settings: Parastagonospora nodorum, read-out: Efficacy
Summary of the method: as §2

[10] = test system: Ustilago segetum var. avenae; assay: in vitro-Test with fungal microorganisms, Method A (tables I1-I5); format: cell-based; settings: alone, read-out: Efficacy %
Summary of the method: as §1

[11] = test system: Ustilago segetum var. avenae; assay: in vitro-Test with fungal microorganisms, Method B (tables I6-I11); format: cell-based; settings: read-out: Efficacy %
Summary of the method: as §2

Colletotrichum coccodes = assay: in vitro-Test with fungal microorganisms, Method B (tables J1-J11); format: cell-based; settings: Colletotrichum coccodes, read-out: Efficacy %
Summary of the method: as §2

SMILES: CC1COC(Cn2cncn2)(c2ccc(Oc3ccc(Cl)cc3)cc2Cl)O1 (stereo not drawn) [(1.002) difenoconazole, difenoconazole]
- inhibition of growth at 0.04 ppm (Alternaria alternate; 0.04 ppm): 10%
- inhibition of growth at 0.2 ppm (Alternaria alternate; 0.2 ppm): 28%
- inhibition of growth at 1 ppm (Alternaria alternate; 1.0 ppm): 96%
- inhibition of growth at 0.04 ppm (Alternaria alternata; 0.04 ppm): 21%
- inhibition of growth at 0.2 ppm (Alternaria alternata; 0.2 ppm): 53%
- inhibition of growth at 1 ppm (Alternaria alternata; 1 ppm): 94%
- inhibition of growth at 0.008 ppm (Botrytis cinerea [1]; 0.008 ppm): 8%
- inhibition of growth at 0.04 ppm (Botrytis cinerea [1]; 0.04 ppm): 0%
- inhibition of growth at 0.2 ppm (Botrytis cinerea [1]; 0.2 ppm): 0%
- inhibition of growth at 1 ppm (Botrytis cinerea [1]; 1.0 ppm): 0%
- inhibition of growth at 1 ppm (Botrytis cinerea [2]): 13%
- inhibition of growth at 0.008 ppm (Cercospora beticola [3]; 0.008 ppm alone): 5%
- inhibition of growth at 0.008 ppm (Cercospora beticola [3]; 0.008 ppm): 15%
- inhibition of growth at 0.04 ppm (Cercospora beticola [3]; 0.04 ppm alone): 20%
- inhibition of growth at 0.04 ppm (Cercospora beticola [3]; 0.04 ppm): 40%
- inhibition of growth at 0.2 ppm (Cercospora beticola [3]; 0.2 ppm alone): 79%
- inhibition of growth at 0.2 ppm (Cercospora beticola [3]; 0.2 ppm): 89%
- inhibition of growth at 1 ppm (Cercospora beticola [3]; 1.0 ppm alone): 99%
- inhibition of growth at 1 ppm (Cercospora beticola [3]; 1.0 ppm): 99%
- inhibition of growth at 0.008 ppm (Cercospora beticola [4]): 5%
- inhibition of growth at 0.04 ppm (Cercospora beticola [4]): 60%
- inhibition of growth at 0.2 ppm (Cercospora beticola [4]): 98%
- inhibition of growth at 1 ppm (Cercospora beticola [4]; 1 ppm): 99%
- inhibition of growth at 0.008 ppm (Cercospora beticola [4]; single compound): 16%
- inhibition of growth at 0.04 ppm (Cercospora beticola [4]; single compound): 51%
- inhibition of growth at 0.2 ppm (Cercospora beticola [4]; single compound): 100%
- inhibition of growth at 0.008 ppm ([5]; 0.008 ppm): 0%
- inhibition of growth at 0.04 ppm ([5]; 0.04 ppm): 2%
- inhibition of growth at 0.2 ppm ([5]; 0.2 ppm): 0%
- inhibition of growth at 1 ppm ([5]; 1.0 ppm): 16%
- inhibition of growth at 0.2 ppm (Cordana musae [6]; 0.2 ppm): 0%
- inhibition of growth at 1 ppm (Cordana musae [6]; 1.0 ppm): 14%
- inhibition of growth at 0.04 ppm (Cordana musae [7]; Neocordana musae, single active, 0.04 ppm, read-out: Efficacy): 0%
- inhibition of growth at 0.2 ppm (Cordana musae [7]; Neocordana musae, single active, 0.2 ppm, read-out: Efficacy): 16%
- inhibition of growth at 1 ppm (Cordana musae [7]; Neocordana musae, single active, 1 ppm, read-out: Efficacy): 20%
- Efficacy % (Cordana musae [7]; single substance, 0.04 ppm): 0%
- inhibition of growth at 0.04 ppm (Diaporthe citri): 0.04%
- inhibition of growth at 0.04 ppm (Fusarium culmorum): 26%
- Efficacy (Parastagonospora nodorum [8]; 0.04 ppm): 22%
- Efficacy (Parastagonospora nodorum [8]; 0.2 ppm): 88%
- inhibition of growth at 0.008 ppm (Parastagonospora nodorum [9]; 0.008 ppm): 32%
- inhibition of growth at 0.04 ppm (Parastagonospora nodorum [9]; 0.04 ppm): 100%
- inhibition of growth at 0.2 ppm (Parastagonospora nodorum [9]; 0.2 ppm): 100%
- inhibition of growth at 0.008 ppm ([10]; 0.008 ppm): 8%
- inhibition of growth at 0.04 ppm ([10]; 0.04 ppm): 14%
- inhibition of growth at 1 ppm ([10]; 1.0 ppm): 100%
- inhibition of growth at 0.008 ppm ([11]; 0.008 ppm): 2%
- inhibition of growth at 0.04 ppm ([11]; 0.04 ppm): 40%
- inhibition of growth at 0.2 ppm ([11]; 0.2 ppm): 100%
- inhibition of growth at 0.2 ppm (Colletotrichum coccodes; 0.2 ppm): 0.31%
- inhibition of growth at 1 ppm (Colletotrichum coccodes; single active compound at 1 ppm): 24%
